Laboratory results published in ChEMBL document CHEMBL4706661, “Synthesis and vasorelaxant evaluation of novel 7-methoxyl-2,3-disubstituted-quinoxaline derivatives” (2021).
Calls of active or inactive are those of the source. The rule behind the calls is not given here.

Experiments:
Thoracic aorta [1] = test: Vasorelaxant activity in C57 mouse thoracic aortic rings containing endothelium assessed as reduction in phenylephrine-induced contractions at 3 to 300 uM pretreated with nitric oxide synthase inhibitor, L-NAME and measured for 16 mins by myograph method; format: functional, tissue-based; conditions: dose 3-300 µM
Thoracic aorta [2] = test: Vasorelaxant activity in C57 mouse thoracic aortic rings containing endothelium assessed as reduction in phenylephrine-induced contractions at 300 uM after 40 mins by myograph method; format: functional
Thoracic aorta [3] = test: Vasorelaxant activity in C57 mouse thoracic aortic rings containing endothelium assessed as reduction in high extracellular K+-induced contractions at 3 to 300 uM pretreated with nitric oxide synthase inhibitor, L-NAME and measured for 16 mins by myograph method; format: functional, tissue-based; conditions: dose 3-300 µM
Thoracic aorta [4] = test: Vasorelaxant activity in C57 mouse thoracic aortic rings assessed as reduction in high extracellular K+-induced contractions at 3 to 300 uM measured for 16 mins in absence of endothelium by myograph assay; format: functional, tissue-based; conditions: dose 3-300 µM
Thoracic aorta [5] = test: Vasorelaxant activity in C57 mouse thoracic aortic rings containing endothelium assessed as reduction in phenylephrine-induced contractions at 3 to 300 uM measured for 16 mins by myograph assay; format: functional, tissue-based; conditions: dose 3-300 µM
Thoracic aorta [6] = test: Vasorelaxant activity in C57 mouse thoracic aortic rings containing endothelium assessed as reduction in high extracellular K+-induced contractions measured for 16 mins by myograph assay; format: functional, tissue-based; conditions: dose 3-300 µM
Thoracic aorta [7] = test: Vasorelaxant activity in C57 mouse thoracic aortic rings assessed as reduction in phenylephrine-induced contractions at 3 to 300 uM measured for 16 mins in absence of endothelium by myograph method; format: functional, tissue-based; conditions: dose 3-300 µM

Compound	Activity (Thoracic aorta [1])	inhibition at 300 µM (Thoracic aorta [2]) [%]	Activity (Thoracic aorta [3])	Activity (Thoracic aorta [4])	Activity (Thoracic aorta [5])	Activity (Thoracic aorta [6])	Activity (Thoracic aorta [7])
COc1ccc2nc(N3CCCC3)c(N3CCN(C)CC3)nc2c1	Active	50	Active	Active	Dose-dependent effect	Dose-dependent effect	Active
CCN1CCN(c2nc3cc(OC)ccc3nc2N2CCCC2)CC1	Active	50	Active	Active	Dose-dependent effect	Dose-dependent effect	Active
COc1ccc2nc(N3CCCC3)c(N3CCN(Cc4ccccc4)CC3)nc2c1	–	–	–	–	inactive	–	–
COc1ccc2nc(Oc3ccc(-c4ccc(C#N)cc4)cc3)c(N3CCN(C)CC3)nc2c1	–	–	–	Active	Active	Dose-dependent effect	–
COc1ccc2nc(N3CCCC3)c(N3CCN(c4ccccc4)CC3)nc2c1	–	–	–	–	inactive	–	–
COc1ccc2nc(Oc3ccc(-c4ccc(C#N)cc4)cc3)c(N3CCN(c4ccccc4)CC3)nc2c1	–	–	–	Active	Active	Dose-dependent effect	–
COc1ccc2nc(NC#N)c(N3CCN(Cc4ccccc4)CC3)nc2c1	–	–	–	–	inactive	–	–
COc1ccc2nc(Oc3ccc(-c4ccccc4)cc3)c(N3CCCC3)nc2c1	–	–	–	–	inactive	–	–
COC(=O)C1CCN(c2nc3cc(OC)ccc3nc2N2CCCC2)CC1	Active	72.7	Active	Active	Dose-dependent effect	Dose-dependent effect	Active
COc1ccc2nc(N3CCCC3)c(N3CCOCC3)nc2c1	–	–	–	–	inactive	–	–
